Here are results for 1 substance from patent US7989599B2, “Activator including biosurfactant as active ingredient, mannosyl erythritol lipid, and production method thereof” (Toyo Boseki Kabushiki Kaisha, priority 2009, dated 2011).

A short description of this series: Ability to form liquid crystal, water-invading method. Type of series: physicochemical. The following applies: polarization microscope, compared with conventional MEL, FIGS. 10 and 11. From the text: Evaluation of the ability to form liquid crystals can be made by a conventional and publicly known method. An example of the method for easily comparing the ability to form liquid crystals is a water invading method. In this method, MEL is applied on a slide glass and distilled water is dropped beside the applied area, and a liquid crystal phase formed at an interface by dropping of the distilled water is observed by a microscope. Thus, behavior of liquid crystal formation can be searched. With the method, it is possible to easily compare the conventional MEL with the MEL optical isomer of the present invention in terms of their abilities to form liquid crystals.
MEL produced by Pseudozyma tsukubaensis JCM 10324 strain obtained in Example 8 and conventional MEL produced by Pseudozyma antarctica KM-34 (FERMP-20730) strain were compared with each other by a water-invading method in terms of their abilities to form liquid crystal.

On to “1-(6′-acetyl-2′,3′-di-O-alka(ke)noyl-β-D-mannnopyranosyl-)meso-erythritol”, for which the “ability to form liquid crystal (lamella phase)” value was “has an ability to form lamella phase in a very wider concentration range than conventional MEL”.
